Holding throughout (experiment): KinomeScan kinase panel, single concentration 10 µM
What all share (format): binding

For test [1], the target named is T1, KinomeScan kinase panel (Homo sapiens, UniProt O00329).
T1 construct: purchased DiscoveRx (KinomeScan)
T1 sequence (O00329 1-1044): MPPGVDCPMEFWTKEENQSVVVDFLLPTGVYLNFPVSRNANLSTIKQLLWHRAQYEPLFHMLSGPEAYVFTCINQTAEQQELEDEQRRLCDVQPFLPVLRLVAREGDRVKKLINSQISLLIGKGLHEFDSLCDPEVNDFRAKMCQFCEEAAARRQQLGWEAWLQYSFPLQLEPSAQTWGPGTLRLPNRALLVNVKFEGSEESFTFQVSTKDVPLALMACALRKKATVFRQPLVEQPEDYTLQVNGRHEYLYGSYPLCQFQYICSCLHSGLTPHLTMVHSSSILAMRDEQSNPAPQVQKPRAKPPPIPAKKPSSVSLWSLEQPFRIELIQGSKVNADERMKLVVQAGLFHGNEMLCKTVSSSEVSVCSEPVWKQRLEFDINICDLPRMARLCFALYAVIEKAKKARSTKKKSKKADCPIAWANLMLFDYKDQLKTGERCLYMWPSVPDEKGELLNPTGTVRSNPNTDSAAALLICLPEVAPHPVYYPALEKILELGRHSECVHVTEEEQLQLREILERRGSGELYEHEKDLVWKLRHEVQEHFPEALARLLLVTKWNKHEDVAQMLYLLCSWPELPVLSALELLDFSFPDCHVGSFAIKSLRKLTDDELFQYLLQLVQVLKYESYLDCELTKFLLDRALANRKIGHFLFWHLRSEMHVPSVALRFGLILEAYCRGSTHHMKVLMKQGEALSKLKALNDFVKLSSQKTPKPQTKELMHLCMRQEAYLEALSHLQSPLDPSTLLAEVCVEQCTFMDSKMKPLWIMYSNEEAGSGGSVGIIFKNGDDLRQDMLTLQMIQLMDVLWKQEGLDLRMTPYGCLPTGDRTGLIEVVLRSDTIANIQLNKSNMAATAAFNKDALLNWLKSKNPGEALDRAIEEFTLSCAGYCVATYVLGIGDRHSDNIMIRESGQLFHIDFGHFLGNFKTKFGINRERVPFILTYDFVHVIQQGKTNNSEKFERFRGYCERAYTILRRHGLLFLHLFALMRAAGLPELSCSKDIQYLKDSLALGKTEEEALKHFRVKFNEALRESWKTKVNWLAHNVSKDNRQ
The following applies: PIK3CD, 10 µM; read-out: score (%).

The target in test [2] is T2, KinomeScan kinase panel (Homo sapiens, UniProt O14578).
T2 construct: purchased DiscoveRx (KinomeScan)
The following applies: CIT, 10 µM.

In test [3] the target is T3, KinomeScan kinase panel (Homo sapiens, UniProt P00519, E255K).
T3 construct: purchased DiscoveRx (KinomeScan)
Particulars: 10 µM, read-out: score (%).

In test [4] the target is T4, KinomeScan kinase panel (Homo sapiens, UniProt P00533, G719S).
T4 construct: purchased DiscoveRx (KinomeScan)
Particulars: EGFR(G719S), 10 µM.

Test [5] deals with T5, KinomeScan kinase panel (Homo sapiens, UniProt P06241).
T5 construct: purchased DiscoveRx (KinomeScan)
The following applies: FYN, 10 µM; read-out: score (%).

For test [6], the target named is T6, KinomeScan kinase panel (Homo sapiens, UniProt P0C264).
T6 construct: purchased DiscoveRx (KinomeScan)
T6 sequence (P0C264 1-359): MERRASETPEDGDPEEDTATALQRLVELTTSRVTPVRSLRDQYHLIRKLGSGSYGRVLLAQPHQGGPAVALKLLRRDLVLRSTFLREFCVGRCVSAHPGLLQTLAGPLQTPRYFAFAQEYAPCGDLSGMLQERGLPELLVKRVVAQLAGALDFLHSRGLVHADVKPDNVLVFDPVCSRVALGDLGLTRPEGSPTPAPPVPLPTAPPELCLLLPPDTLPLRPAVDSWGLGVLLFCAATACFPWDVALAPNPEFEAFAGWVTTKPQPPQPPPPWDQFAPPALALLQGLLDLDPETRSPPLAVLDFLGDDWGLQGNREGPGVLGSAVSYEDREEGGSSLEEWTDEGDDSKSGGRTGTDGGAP
The following applies: read-out: score (%).

In test [7] the target is T7, KinomeScan kinase panel (Homo sapiens, UniProt P54756).
T7 construct: purchased DiscoveRx (KinomeScan)
The following applies: EPHA5, 10 µM.

The target in test [8] is T8, KinomeScan kinase panel (Homo sapiens, UniProt Q15139).
T8 construct: purchased DiscoveRx (KinomeScan)
T8 sequence (Q15139 1-912): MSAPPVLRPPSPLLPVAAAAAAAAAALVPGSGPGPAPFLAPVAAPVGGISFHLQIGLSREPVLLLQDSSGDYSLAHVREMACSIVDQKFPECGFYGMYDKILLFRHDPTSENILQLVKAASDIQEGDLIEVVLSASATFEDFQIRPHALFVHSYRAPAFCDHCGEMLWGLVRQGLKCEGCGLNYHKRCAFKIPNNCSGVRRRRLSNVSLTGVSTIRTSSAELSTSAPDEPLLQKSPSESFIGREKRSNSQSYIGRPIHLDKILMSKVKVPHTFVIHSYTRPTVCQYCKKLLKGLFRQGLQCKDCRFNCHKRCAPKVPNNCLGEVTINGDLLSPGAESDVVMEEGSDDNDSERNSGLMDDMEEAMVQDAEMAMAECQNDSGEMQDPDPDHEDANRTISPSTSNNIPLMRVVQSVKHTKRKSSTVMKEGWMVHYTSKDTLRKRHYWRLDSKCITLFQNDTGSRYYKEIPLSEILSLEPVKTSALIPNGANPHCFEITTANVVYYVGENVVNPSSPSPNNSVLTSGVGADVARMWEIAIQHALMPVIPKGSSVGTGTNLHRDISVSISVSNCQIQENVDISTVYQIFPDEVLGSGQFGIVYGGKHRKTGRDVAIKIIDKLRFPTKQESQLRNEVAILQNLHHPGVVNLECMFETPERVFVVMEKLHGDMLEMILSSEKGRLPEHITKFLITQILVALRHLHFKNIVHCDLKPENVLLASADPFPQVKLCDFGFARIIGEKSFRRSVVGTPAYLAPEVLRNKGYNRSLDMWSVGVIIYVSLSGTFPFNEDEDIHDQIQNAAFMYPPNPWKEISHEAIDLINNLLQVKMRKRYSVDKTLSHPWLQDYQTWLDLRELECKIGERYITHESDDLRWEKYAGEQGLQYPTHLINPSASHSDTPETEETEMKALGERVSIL
The following applies: read-out: score (%).

The target in test [9] is T9, KinomeScan kinase panel (Homo sapiens, UniProt Q8TDR2).
T9 construct: purchased DiscoveRx (KinomeScan)
Particulars: read-out: score (%).

In test [10] the target is T10, KinomeScan kinase panel (Homo sapiens, UniProt Q9BUB5).
T10 construct: purchased DiscoveRx (KinomeScan)
The following applies: MKNK1, 10 µM; read-out: score (%).

Experimental findings from PMC4457528, “Identification of Novel Small Molecule Inhibitors of Oncogenic RET Kinase” (PLoS ONE, 2015) are described below.

Read-outs that look alike come from different tables or passages of the source. A value given as a limit tells only on which side of the number the result lay.

T5 sequence (P06241 whole entry): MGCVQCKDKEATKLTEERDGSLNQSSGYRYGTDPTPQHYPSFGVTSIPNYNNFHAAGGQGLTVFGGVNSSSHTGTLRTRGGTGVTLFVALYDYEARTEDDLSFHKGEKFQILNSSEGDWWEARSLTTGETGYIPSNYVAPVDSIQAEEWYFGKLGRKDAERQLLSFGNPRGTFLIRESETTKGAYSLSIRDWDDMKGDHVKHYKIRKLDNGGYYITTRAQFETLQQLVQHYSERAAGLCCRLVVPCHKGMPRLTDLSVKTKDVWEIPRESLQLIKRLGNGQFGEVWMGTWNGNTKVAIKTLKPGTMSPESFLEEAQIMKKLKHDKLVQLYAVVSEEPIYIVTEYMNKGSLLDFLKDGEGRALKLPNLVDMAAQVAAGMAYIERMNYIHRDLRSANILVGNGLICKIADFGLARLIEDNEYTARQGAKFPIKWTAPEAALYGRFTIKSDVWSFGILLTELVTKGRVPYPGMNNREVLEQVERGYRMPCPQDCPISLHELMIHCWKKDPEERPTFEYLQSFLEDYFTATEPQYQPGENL
T9 sequence (Q8TDR2 whole entry): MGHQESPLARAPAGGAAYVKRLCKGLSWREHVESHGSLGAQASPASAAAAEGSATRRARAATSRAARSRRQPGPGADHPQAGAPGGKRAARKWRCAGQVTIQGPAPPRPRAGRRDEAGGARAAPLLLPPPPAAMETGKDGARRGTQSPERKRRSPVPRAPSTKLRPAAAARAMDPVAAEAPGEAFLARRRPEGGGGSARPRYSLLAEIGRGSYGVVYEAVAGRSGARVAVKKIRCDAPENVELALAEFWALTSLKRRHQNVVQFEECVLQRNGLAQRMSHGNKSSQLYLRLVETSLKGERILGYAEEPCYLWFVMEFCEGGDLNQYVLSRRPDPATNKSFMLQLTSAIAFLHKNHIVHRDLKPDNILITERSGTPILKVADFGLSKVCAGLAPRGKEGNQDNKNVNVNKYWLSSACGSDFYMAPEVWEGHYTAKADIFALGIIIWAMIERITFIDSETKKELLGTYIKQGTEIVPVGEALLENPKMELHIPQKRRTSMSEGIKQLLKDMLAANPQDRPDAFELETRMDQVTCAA
T4 sequence (P00533 25-1210 G719S): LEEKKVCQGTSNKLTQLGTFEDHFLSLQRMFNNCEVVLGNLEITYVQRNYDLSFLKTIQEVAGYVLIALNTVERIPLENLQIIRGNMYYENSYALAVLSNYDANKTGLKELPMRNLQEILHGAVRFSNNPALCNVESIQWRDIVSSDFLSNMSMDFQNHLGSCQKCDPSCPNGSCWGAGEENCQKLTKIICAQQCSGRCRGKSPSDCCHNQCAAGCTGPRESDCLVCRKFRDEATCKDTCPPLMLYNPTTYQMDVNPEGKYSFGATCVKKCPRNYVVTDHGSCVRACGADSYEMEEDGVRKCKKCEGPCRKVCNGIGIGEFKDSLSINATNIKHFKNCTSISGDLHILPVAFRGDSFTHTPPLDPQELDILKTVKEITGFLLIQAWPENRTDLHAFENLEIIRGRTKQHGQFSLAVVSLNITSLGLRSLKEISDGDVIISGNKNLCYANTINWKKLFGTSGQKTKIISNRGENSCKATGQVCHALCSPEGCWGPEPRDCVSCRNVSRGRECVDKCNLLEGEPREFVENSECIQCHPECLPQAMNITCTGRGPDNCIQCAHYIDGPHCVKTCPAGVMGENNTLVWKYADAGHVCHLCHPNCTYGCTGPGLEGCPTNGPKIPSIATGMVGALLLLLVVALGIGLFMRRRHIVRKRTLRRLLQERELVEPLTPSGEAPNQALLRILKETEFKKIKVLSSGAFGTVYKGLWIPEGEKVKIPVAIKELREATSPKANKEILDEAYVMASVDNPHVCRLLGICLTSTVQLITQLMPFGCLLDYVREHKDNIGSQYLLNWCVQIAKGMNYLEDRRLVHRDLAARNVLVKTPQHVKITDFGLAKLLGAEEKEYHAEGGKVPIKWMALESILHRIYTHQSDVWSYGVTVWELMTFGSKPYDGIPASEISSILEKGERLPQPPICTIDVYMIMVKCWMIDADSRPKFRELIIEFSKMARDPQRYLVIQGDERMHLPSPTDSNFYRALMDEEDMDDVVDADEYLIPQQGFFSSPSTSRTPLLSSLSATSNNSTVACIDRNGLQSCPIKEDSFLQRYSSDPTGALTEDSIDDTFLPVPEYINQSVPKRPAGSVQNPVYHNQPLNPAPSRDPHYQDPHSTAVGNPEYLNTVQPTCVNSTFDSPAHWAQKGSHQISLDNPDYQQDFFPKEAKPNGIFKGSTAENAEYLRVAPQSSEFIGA
T7 sequence (P54756 25-1037): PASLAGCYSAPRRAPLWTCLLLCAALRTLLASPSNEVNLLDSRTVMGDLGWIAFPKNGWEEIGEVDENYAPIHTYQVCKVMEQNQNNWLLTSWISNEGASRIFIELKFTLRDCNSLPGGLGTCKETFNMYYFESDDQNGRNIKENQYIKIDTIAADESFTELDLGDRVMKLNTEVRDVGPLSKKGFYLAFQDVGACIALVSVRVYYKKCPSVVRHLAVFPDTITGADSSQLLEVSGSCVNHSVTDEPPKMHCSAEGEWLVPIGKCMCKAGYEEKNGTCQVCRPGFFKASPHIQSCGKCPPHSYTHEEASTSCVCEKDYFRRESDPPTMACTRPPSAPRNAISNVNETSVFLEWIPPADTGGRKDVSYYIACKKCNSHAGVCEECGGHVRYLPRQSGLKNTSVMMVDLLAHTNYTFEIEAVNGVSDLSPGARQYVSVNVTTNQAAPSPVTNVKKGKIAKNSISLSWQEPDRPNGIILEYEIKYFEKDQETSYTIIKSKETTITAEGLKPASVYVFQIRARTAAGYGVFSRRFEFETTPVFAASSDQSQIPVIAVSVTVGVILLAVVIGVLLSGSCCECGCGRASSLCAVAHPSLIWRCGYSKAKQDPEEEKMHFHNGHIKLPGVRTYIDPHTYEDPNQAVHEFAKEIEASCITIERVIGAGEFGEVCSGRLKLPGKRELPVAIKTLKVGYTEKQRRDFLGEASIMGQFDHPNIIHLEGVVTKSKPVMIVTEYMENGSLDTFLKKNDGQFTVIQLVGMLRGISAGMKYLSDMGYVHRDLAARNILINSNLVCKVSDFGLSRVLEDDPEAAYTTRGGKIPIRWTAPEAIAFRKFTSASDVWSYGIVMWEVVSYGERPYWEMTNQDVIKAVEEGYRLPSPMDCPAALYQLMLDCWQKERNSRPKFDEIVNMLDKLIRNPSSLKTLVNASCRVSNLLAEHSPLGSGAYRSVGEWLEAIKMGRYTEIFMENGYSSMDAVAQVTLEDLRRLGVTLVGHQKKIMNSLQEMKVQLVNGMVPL
T10 sequence (Q9BUB5 whole entry): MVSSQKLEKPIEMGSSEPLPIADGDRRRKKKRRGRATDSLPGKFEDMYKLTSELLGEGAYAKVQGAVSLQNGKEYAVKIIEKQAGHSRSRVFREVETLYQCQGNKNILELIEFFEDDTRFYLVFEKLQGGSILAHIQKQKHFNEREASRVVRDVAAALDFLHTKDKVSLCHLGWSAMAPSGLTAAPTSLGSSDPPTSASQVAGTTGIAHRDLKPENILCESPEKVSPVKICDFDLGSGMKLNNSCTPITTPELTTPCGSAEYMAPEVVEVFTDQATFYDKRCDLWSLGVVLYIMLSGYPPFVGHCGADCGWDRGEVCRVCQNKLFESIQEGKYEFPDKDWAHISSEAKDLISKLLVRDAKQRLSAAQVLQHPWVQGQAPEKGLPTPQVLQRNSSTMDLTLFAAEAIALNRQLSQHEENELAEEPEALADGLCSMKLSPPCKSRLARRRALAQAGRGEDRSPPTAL
T3 sequence (P00519 whole entry E255K): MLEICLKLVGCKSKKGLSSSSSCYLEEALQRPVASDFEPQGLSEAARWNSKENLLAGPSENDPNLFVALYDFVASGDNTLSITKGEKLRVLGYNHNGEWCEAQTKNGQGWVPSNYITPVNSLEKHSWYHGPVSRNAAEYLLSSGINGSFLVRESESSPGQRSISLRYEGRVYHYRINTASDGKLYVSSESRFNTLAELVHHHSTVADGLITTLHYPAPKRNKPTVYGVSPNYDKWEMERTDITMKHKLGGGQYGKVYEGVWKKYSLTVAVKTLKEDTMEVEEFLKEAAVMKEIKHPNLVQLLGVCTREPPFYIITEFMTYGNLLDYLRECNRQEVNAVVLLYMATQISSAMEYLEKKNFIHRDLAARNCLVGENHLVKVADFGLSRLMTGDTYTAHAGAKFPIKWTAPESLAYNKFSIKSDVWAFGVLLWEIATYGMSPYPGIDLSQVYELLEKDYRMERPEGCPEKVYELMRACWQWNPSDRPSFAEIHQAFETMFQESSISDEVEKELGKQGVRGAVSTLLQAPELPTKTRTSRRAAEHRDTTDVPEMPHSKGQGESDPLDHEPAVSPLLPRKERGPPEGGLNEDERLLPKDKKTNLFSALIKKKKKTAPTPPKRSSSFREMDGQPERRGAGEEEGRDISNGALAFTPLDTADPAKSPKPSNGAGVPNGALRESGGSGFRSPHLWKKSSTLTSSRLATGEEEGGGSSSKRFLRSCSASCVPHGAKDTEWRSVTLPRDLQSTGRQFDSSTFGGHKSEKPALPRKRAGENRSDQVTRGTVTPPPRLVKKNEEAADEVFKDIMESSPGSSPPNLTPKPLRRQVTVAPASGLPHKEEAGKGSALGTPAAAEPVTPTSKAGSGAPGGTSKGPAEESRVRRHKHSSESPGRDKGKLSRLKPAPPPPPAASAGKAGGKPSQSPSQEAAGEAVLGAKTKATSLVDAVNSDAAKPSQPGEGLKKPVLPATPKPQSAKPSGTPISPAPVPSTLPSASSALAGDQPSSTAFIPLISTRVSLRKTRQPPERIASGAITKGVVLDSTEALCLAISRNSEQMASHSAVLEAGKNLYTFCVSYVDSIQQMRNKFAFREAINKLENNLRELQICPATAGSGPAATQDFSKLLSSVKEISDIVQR

Consider `CCN1CCN(Cc2ccc(NC(=O)c3ccc(C)c(NC(=O)c4cncc(-c5cccs5)c4)c3)cc2C(F)(F)F)CC1` [ALW-II-41-27], for which the remaining binding at 10 µM was above 30% in test [1]; 7.2% in test [3] (ABL1(E255K)); 0.25% in test [5]; above 30% in test [6] (kinase SgK110, 10 µM); above 30% in [8] (PRKD1, 10 µM); 21% in test [9] (kinase STK35, 10 µM). Moreover, the remaining binding at 10 µM in test [10] was found to be 14%. The “score (%)” value in test [2] turned out to be 14%; in [4] it was 0.5%; in test [7], 0.25%.

`CCN1CCN(Cc2ccc(NC(=O)c3ccc(C)c(/C=C/c4cnc5[nH]ccc5c4Cl)c3)cc2C(F)(F)F)CC1` [HG-6-63-01, (E)-3-(2-(4-chloro-1H-pyrrolo[2,3-b]pyridin-5-yl)vinyl)-N-(4-((4-ethylpiperazin-1-yl)methyl)-3-(trifluoromethyl)phenyl)-4-methylbenzamide]: the remaining binding at 10 µM in test [1] is above 30%; in test [3] (ABL1(E255K)), 1.3%; in [5] it was 2.2%; in [6] (SgK110, 10 µM) it was 29%; in test [8] (PRKD1, 10 µM) it was above 30%; in test [9] (STK35, 10 µM), above 30%. Further, the remaining binding at 10 µM in [10] was above 30%. In addition, the “score (%)” value in [2] is recorded as 0.2%; in test [4], 0.1%; in test [7], 3.3%.

In the case of `CCN1CCN(Cc2ccc(NC(=O)c3ccc(C)c(C#Cc4cccnc4)c3)cc2C(F)(F)F)CC1` [XMD15-44], the remaining binding at 10 µM was determined as 76% in [1]; 0.05% in test [3] (ABL1(E255K)-phosphorylated); 0.35% in [5]; 100% in [6] (kinase SgK110, 10 µM); 51% in test [8] (kinase PRKD1, 10 µM); 1.6% in test [9] (kinase STK35, 10 µM). The remaining binding at 10 µM in [10] was found to be 0.25%. Also, the “score (%)” value is on record as 0% in test [2], 2.4% in test [4] and 1.2% in test [7].
